Assay results reported in ChEMBL document CHEMBL1201862, “PubChem BioAssay data set” (2004).
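Step 1: Grow cells in 96-well plates. Step 2: Expose to compound for 48 hours at 5 concentrations. Step 3: Interpolate endpoints linearly; if unreached, use highest concentration. At the GI50, growth is halved.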 Activity calls are given as the source filed them. Rule as the data show it: active = GI50 up to about 1.1 µM and inactive = higher.

Assays:
Experiment in all cases: DTP human tumour cell line panel, 48 h
A549 = system: A549
SNB-19 = system: SNB-19
TK-10 = system: TK-10
MOLT-4 = system: MOLT-4
HCT-116 = system: HCT-116
IGROV-1 = system: IGROV-1
HT-29 = system: HT-29
EKVX = system: EKVX
UACC-257 = system: UACC-257
786-0 = system: 786-0
SK-MEL-5 = system: SK-MEL-5
NCI-H522 = system: NCI-H522
OVCAR-3 = system: OVCAR-3
RPMI-8226 = system: RPMI-8226
SNB-75 = system: SNB-75
OVCAR-4 = system: OVCAR-4

Measured: GI50

C/C=C1\CN2CCc3c([nH]c4ccccc34)C2C=C1CCO (configuration not stated)
inactive: A549 > 340 µM | SNB-19 > 340 µM | TK-10 > 340 µM | MOLT-4 > 340 µM | HCT-116 > 340 µM | IGROV-1 > 340 µM | HT-29 > 340 µM | EKVX > 340 µM | UACC-257 > 340 µM | 786-0 > 340 µM | SK-MEL-5 > 340 µM | NCI-H522 > 340 µM | OVCAR-3 231 µM | RPMI-8226 > 340 µM

O=C1C(=O)C(Br)(Br)C(Br)=C1Br
inactive: SNB-75 14.4 µM | A549 37.4 µM | SNB-19 68.9 µM | TK-10 19.4 µM | MOLT-4 24.4 µM | OVCAR-4 22.4 µM | IGROV-1 38.1 µM | HT-29 19 µM | EKVX 25.4 µM | UACC-257 20.3 µM | 786-0 16.4 µM | SK-MEL-5 15.4 µM | NCI-H522 2.33 µM | OVCAR-3 15.5 µM | RPMI-8226 22.3 µM

COC1OC(COS(=O)(=O)c2ccc(C)cc2)C(O)C(OS(=O)(=O)c2ccc(C)cc2)C1OS(=O)(=O)c1ccc(C)cc1 (configuration not stated)
inactive: SNB-75 95.9 µM | A549 > 100 µM | SNB-19 > 100 µM | MOLT-4 > 100 µM | HCT-116 > 100 µM | OVCAR-4 > 100 µM | IGROV-1 > 100 µM | HT-29 > 100 µM | EKVX > 100 µM | UACC-257 > 100 µM | 786-0 > 100 µM | SK-MEL-5 > 100 µM | NCI-H522 > 100 µM | OVCAR-3 > 100 µM | RPMI-8226 > 100 µM

CC(=O)n1c2ccccc2c2nc3nc(Oc4ccc(C)cc4)c4ccccc4c3cc21
inactive: SNB-75 44.2 µM | A549 > 100 µM | SNB-19 92 µM | MOLT-4 > 100 µM | HCT-116 > 100 µM | OVCAR-4 29.4 µM | IGROV-1 > 100 µM | HT-29 > 100 µM | EKVX > 100 µM | UACC-257 > 100 µM | 786-0 65.8 µM | SK-MEL-5 > 100 µM | NCI-H522 > 100 µM | OVCAR-3 > 100 µM | RPMI-8226 > 100 µM

COC(=O)c1ccc(Cl)cc1NC(=O)C1CCCCC1
inactive: A549 > 100 µM | SNB-19 > 100 µM | TK-10 40 µM | MOLT-4 > 100 µM | HCT-116 > 100 µM | OVCAR-4 > 100 µM | HT-29 > 100 µM | EKVX > 100 µM | UACC-257 > 100 µM | 786-0 > 100 µM | NCI-H522 > 100 µM | OVCAR-3 > 100 µM | RPMI-8226 > 100 µM
